Laboratory results: US6936634B2, “Ruthenium (II) compounds for use in the therapy of cancer” (The University Court, The University of Edinburgh (UK), priority 2000, dated 2005)
pIC50: −log10 of the molar value. Like-named read-outs stand apart in the source and are kept apart here.

How the values were obtained:
Format in all cases: cell-based
[1] = tested on: A2780 cis, variant of A2780 showing resistance to cis-platin; assay: Cell growth inhibition, A2780 cis (cis-platin resistant variant); settings: 24 hours exposure
Method: (§1) The compounds are tested on 24 -well trays. Cells growing in a flask are harvested just before they become confluent, counted using a haemocytometer and diluted down with media to a concentration of 1×10^4 cells per ml. The cells are then seeded in the 24 -well trays at a density of […] (i.e. 1 ml of the diluted cell suspension is added to each well). The cells are then left to plate down and grow for 72 hours before adding the compounds of the invention.
(§2) The Ru complexes are weighed out and made up to a concentration of is 1 mg/ml with deionised water then sonicated, until they go into solution. The appropriate volume of the Ru solution is added to 5 ml of media to make it up to a concentration of 100 μM for each drug. This 100 μM solution is then serially diluted to make up the 10 μM, 1 μM and 0.1 μM solutions.
(§3) The media is removed from the cells and replaced with 1 ml of the media dosed with drug. Each concentration is done in duplicate. A set of control wells are left on each plate, containing media without drug.
(§4) The cells are left exposed to the drugs for 24 hours and then washed with phosphate buffered saline before fresh media is added.
(§5) They are allowed to grow on for a further 3 days before being counted using a Coulter counter.
(§6) • Media is removed and 1 ml of PBS is added to the cells. • 250 μl of trypsin is added and cells left in incubator for a few minutes to allow the monolayers to detach. • Once trypsinised, 250 μl of media is added to each well to neutralise the trypsin. 200 μl of this suspension is added to 10 ml of NaCl for counting. 2. Results
(§7) The experiments were repeated to investigate the effect of the compounds of the invention on drag-resistant variants of the A2780 cell line.

[2] = tested on: A2780 AD, variant of A2780 showing resistance to adriomycin; assay: Cell growth inhibition, A2780 AD (adriomycin resistant variant); settings: multidrug resistant, over expresses p glycoprotein, 24 hours exposure
Method: as §1, §2, §3, §4, §5, §6, §7

[3] = tested on: A2780 ovarian cancer cell line; assay: Cell growth inhibition, A2780 ovarian cancer cell line
Method: as §1, §2, §3, §4, §5, §6
Using the above protocol, a number of compounds of the invention were tested on A2780 ovarian cancer cell line.

[4] = A2780, repeated experiments with drug-resistant variants, 24 hours exposure, read-out: IC50 A2780
[5] = A2780 ovarian cancer cell line, 24 hours drug exposure, counted after a further 3 days, first experiment, read-out: IC50

Row | Compound | pIC50 [1] | pIC50 [2] | pIC50 [3, 4] | pIC50 [3, 5]
1 | C1=CCC2=C(C1)Cc1ccccc1C2.F[P-](F)(F)(F)(F)F.NCCN.[Cl][Ru+] [Example 1, [(η^6-C14H14)RuCl(en)]^+PF6] | 6.00 | 3.48 | 6.30 | 6.30
2 | C1=CCC2=C(C1)Cc1ccccc1C2.[Cl][Ru][Cl] [Example 2, [(η^6-C14H14)RuCl2(DMSO)]] | 3.31 | 5.40 | 4.03 | 4.03
3 | C1=CCC2=C(C1)Cc1ccccc1C2.CC#N.CC#N.F[P-](F)(F)(F)(F)F.[Cl][Ru+] [Example 3, [(η^6-C14H14)RuCl(CH3CN)2]^+PF6^−] | 5.70 | 5.70 | 3.94 | 3.75
4 | F[P-](F)(F)(F)(F)F.NCCN.[Cl][Ru+].c1ccc2c(c1)Cc1ccccc1C2 [Example 4, [η^6-C14H12)RuCl(en)]^+PF6−] | 4.80 | 3.98 | 5.70 | 6.52
5 | [Cl][Ru][Cl].c1ccc2c(c1)Cc1ccccc1C2 [Example 5, [(η^6-C14H12)RuCl2(DMSO)]] | 5.70 | 5.30 | 3.90 | 4.17
6 | CC#N.CC#N.F[P-](F)(F)(F)(F)F.[Cl][Ru+].c1ccc2c(c1)Cc1ccccc1C2 [Example 6, [(η^6-C14H12)RuCl(CH3CN)2]^+PF6^−] | 5.70 | 6.05 | 3.72 | 3.50
7 | {[(η^6-C14H14)RuCl]2[H2N(CH2)2NH(CH2)6NH(CH2)2NH2−N,N′N″,N′″]}^2+.2PF6^− [Example 7] | – | – | – | 5.22
